Data published in patent US20250195521A1 (Revolution Medicines, Inc., priority 2020, published 2025).
Read-outs that look alike come from different tables or passages of the source.

What was measured:
[1] = target: NRAS WT (Homo sapiens (Human), UniProt P01111+P62937); experiment: Ras-Raf disruption/FRET/MOA assay (BRAF RBD, Cyclophilin A); type: biochemical
Method in brief: (§1)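 25 μM tagless Cyclophilin A, 12.5 nM His6-Ras-GMPPNP and 50 nM GST-BRAF RBD in HEPES pH 7.3 buffer with 5 mM MgCl2, with compound (10-point 3-fold series from 30 μM final) for 3 h at 25 °C. Anti-His Eu and anti-GST APC then added for 1.5 h. IC50 from TR-FRET ratio decrease versus DMSO.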

[2] = target: NRAS Q61R (Homo sapiens (Human), UniProt P01111+P62937, Q61R); experiment: as above; type: biochemical
NRAS Q61R, sequence (P01111 whole entry Q61R): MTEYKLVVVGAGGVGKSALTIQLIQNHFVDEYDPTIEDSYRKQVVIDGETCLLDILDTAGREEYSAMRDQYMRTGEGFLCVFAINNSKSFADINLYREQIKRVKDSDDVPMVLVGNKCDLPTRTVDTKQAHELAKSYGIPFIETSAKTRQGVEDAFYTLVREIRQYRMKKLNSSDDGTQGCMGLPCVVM
NRAS Q61R, sequence (P62937 whole entry): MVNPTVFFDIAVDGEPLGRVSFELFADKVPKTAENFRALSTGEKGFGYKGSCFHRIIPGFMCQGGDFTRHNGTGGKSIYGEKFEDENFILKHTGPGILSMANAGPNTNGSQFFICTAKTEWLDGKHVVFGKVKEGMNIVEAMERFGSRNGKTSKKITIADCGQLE
Method in brief: as §1

[3] = target: KRAS G13D (Homo sapiens (Human), UniProt P01116+P62937, G13D); experiment: as above; type: biochemical; settings: read-out: KRAS G13D FRET data IC50
KRAS G13D, sequence (P01116 other isoform, or with tags, fused parts or gaps G13D): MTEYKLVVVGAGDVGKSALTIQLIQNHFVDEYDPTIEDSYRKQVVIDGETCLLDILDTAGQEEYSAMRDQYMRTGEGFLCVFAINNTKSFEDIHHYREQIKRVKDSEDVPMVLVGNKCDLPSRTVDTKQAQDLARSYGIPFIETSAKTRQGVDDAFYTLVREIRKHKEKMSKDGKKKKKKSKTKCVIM
KRAS G13D, sequence (P62937 whole entry): as the sequence (P62937 whole entry) above
Method in brief: (§2)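 His6-K-Ras-GMPPNP (12.5 nM), GST-BRAF RBD (50 nM) and tagless Cyclophilin A (25 μM) were combined in 25 mM HEPES pH 7.3 with 100 mM NaCl, 5 mM MgCl2, 0.1% BSA and 0.002% Tween20, with compound as a 10-point 3-fold series from 30 μM final, then incubated 3 h at 25° C.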

[4] = target: KRAS WT (Homo sapiens (Human), UniProt P01116+P62937); experiment: as above; type: biochemical; settings: read-out: KRAS WT FRET data IC50
KRAS WT, sequence (P01116 other isoform, or with tags, fused parts or gaps): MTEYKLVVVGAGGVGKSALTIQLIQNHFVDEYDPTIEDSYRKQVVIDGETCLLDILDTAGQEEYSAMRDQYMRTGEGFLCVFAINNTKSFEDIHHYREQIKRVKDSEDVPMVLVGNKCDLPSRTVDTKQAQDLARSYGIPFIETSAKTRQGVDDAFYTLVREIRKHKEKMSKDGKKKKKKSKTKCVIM
KRAS WT, sequence (P62937 whole entry): as the sequence (P62937 whole entry) above
Method in brief: as §2

[5] = target: NRAS G12C (Homo sapiens (Human), UniProt P01111+P62937, G12C); experiment: as above; type: biochemical; settings: read-out: NRAS G12C FRET data IC50
NRAS G12C, sequence (P01111 whole entry G12C): as the sequence (P01111 whole entry Q61R) above, with G12C, R61Q counted along it
NRAS G12C, sequence (P62937 whole entry): as the sequence (P62937 whole entry) above
Method in brief: as §1

[6] = target: KRAS G12D (Homo sapiens (Human), UniProt P01116+P62937, G12D); experiment: as above; type: biochemical; settings: read-out: KRAS G12D FRET IC50
KRAS G12D, sequence (P01116 other isoform, or with tags, fused parts or gaps G12D): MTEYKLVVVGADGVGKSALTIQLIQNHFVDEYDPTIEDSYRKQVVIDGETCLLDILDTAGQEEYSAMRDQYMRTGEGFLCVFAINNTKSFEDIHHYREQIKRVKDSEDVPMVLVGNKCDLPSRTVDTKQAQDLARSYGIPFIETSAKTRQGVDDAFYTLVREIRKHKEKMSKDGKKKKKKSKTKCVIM
KRAS G12D, sequence (P62937 whole entry): as the sequence (P62937 whole entry) above
Method in brief: as §2

[7] = target: KRAS G12C (Homo sapiens (Human), UniProt P01116+P62937, G12C); experiment: as above; type: biochemical; settings: read-out: KRAS G12C FRET IC50
KRAS G12C, sequence (P01116-2 other isoform, or with tags, fused parts or gaps G12C): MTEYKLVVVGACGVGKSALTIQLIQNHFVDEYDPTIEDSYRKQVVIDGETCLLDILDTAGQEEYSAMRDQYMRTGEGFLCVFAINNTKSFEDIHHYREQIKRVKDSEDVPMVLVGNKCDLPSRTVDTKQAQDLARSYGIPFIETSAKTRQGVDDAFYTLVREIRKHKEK
KRAS G12C, sequence (P62937 whole entry): as the sequence (P62937 whole entry) above
Method in brief: as §2

[8] = target: KRAS G12V (Homo sapiens (Human), UniProt P01116+P62937, G12V); experiment: as above; type: biochemical; settings: read-out: KRAS G12V FRET IC50
KRAS G12V, sequence (P01116 other isoform, or with tags, fused parts or gaps G12V): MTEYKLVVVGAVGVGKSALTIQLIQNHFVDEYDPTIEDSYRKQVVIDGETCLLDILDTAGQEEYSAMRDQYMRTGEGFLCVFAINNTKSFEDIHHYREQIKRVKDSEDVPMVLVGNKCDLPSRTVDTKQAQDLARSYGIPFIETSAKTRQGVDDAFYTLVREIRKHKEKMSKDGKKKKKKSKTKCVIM
KRAS G12V, sequence (P62937 whole entry): as the sequence (P62937 whole entry) above
Method in brief: as §2

[9] = target: KRAS G13C (Homo sapiens (Human), UniProt P01116+P62937, G13C); experiment: as above; type: biochemical; settings: read-out: KRAS G13C FRET IC50
KRAS G13C, sequence (P01116 other isoform, or with tags, fused parts or gaps G13C): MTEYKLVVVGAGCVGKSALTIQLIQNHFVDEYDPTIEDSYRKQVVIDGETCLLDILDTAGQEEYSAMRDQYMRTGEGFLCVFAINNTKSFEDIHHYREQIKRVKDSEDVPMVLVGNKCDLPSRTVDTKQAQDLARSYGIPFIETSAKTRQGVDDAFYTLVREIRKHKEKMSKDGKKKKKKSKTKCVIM
KRAS G13C, sequence (P62937 whole entry): as the sequence (P62937 whole entry) above
Method in brief: as §2

[10] = target: KRAS G12S (Homo sapiens (Human), UniProt P01116+P62937, G12S); experiment: as above; type: biochemical; settings: read-out: KRAS G12S FRET IC50
KRAS G12S, sequence (P01116 other isoform, or with tags, fused parts or gaps G12S): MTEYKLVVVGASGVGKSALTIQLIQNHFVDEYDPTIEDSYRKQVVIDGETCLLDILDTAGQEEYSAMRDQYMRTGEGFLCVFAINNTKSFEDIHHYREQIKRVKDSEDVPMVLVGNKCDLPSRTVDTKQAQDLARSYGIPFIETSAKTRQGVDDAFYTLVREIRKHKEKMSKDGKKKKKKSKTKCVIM
KRAS G12S, sequence (P62937 whole entry): as the sequence (P62937 whole entry) above
Method in brief: as §2

[11] = system: Capan-1 cells (K-Ras G12V); experiment: CellTiter-Glo cell viability, Capan-1; type: cell-based, human; settings: K-Ras G12V, 5-day treatment, read-out: Capan-1 Cell Viability IC50
Method in brief: (§3)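 Compounds dispensed directly onto seeded cells; on day 5 plates equilibrated ~30 min to room temperature and luminescence read. Signal normalized to DMSO average (%) and fitted by four-parameter logistic.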

[12] = system: NCI-H358 cells (K-Ras G12C); experiment: CellTiter-Glo cell viability, NCI-H358; type: cell-based, human; settings: K-Ras G12C, 5-day treatment, read-out: H358 Cell Viability IC50
Method in brief: as §3

[13] = system: K-Ras G12C (NCI-H358 cells); experiment: Potency assay: pERK in NCI-H358 cells; type: cell-based, human; settings: Homo sapiens; NCI-H358 cells, 4 hours; read-out: pERK EC50 (H358 KRAS G12C)
Method in brief: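 Cells plated the day before were exposed for 4 h at 37° C, 5% CO2 to a 10-point, 3-fold DMSO dilution series (10 mM top stock), in duplicate. Phospho-ERK was read by AlphaLISA SureFire Ultra or by In-Cell Western with DRAQ5 DNA stain, and IC50 came from a 4-parameter sigmoidal fit.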

[14] = target: KRAS Q61H (Homo sapiens (Human), UniProt P01116+P62937, Q61H); experiment: Ras-Raf disruption/FRET/MOA assay (BRAF RBD, Cyclophilin A); type: biochemical
KRAS Q61H, sequence (P01116 other isoform, or with tags, fused parts or gaps Q61H): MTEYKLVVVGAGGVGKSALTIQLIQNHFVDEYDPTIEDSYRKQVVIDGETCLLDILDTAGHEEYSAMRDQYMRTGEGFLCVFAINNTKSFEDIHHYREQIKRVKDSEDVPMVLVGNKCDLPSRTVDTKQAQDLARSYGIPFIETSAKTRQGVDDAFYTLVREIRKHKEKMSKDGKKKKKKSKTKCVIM
KRAS Q61H, sequence (P62937 whole entry): as the sequence (P62937 whole entry) above
Method in brief: as §2

[15] = target: K-Ras G12C(GMP-PNP) binding to BRAF RBD (Homo sapiens (Human), UniProt P01116+P62937, G12C); experiment: Disruption of BRAF RBD interaction with K-Ras (FRET / MOA assay), K-Ras G12C; type: biochemical; settings: read-out: KRAS G12C FRET IC50
K-Ras G12C(GMP-PNP) binding to BRAF RBD, sequence (P01116 other isoform, or with tags, fused parts or gaps G12C): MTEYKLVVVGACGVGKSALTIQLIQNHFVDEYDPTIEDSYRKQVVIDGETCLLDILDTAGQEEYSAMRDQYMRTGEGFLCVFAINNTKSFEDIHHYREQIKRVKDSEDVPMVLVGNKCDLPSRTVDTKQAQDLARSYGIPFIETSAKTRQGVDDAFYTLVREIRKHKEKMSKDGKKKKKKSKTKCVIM
K-Ras G12C(GMP-PNP) binding to BRAF RBD, sequence (P62937 whole entry): as the sequence (P62937 whole entry) above
Method in brief: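 TR-FRET readout: after 3 h compound incubation at 25 °C, anti-His Eu and anti-GST allophycocyanin (10 and 50 nM final) added for a further 1.5 h. Dilution series was 10-point, 3-fold, top 30 μM final. Ras–cyclophilin A ternary complex formation blocks the BRAF RBD interaction; IC50 derived from reduced FRET ratio relative to DMSO.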

[16] = system: NCI-H358 (K-Ras G12C); experiment: CellTiter-Glo cell viability assay, NCI-H358; type: cell-based, human; settings: Homo sapiens, NCI-H358, 120 h, 5-day treatment; read-out: H358 Cell Viability assay data (K-Ras G12C, IC50)
Method in brief: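 NCI-H358 (K-Ras G12C) cells treated with compound dispensed directly into plates. CellTiter-Glo luminescence read on day 5 after ~30 min equilibration to room temperature. Signal normalised to DMSO average ×100, then fitted with a four-parameter logistic model.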

NRAS WT, sequence (P01111 whole entry): as the sequence (P01111 whole entry Q61R) above, with R61Q counted along it
NRAS WT, sequence (P62937 whole entry): as the sequence (P62937 whole entry) above

IC50 [1] [nM] | IC50 [2] [nM] | IC50 [3] [nM] | IC50 [4] [nM] | IC50 [5] [nM] | IC50 [6] [nM] | IC50 [7] [nM] | IC50 [8] [nM] | IC50 [9] [nM] | IC50 [10] [nM] | IC50 ([12]; Homo sapiens, NCI-H358, 120 h) [nM] | EC50 [13] [nM] | IC50 [14] [nM] | IC50 [15] [nM] | IC50 [16] [nM] | IC50 [12] [nM] | Structure (SMILES) | IC50 ([11]; Homo sapiens, CAPAN-1, 120 h) [nM] | IC50 [11] [nM]
100 to 1000 | 100 to 1000 | 100 to 1000 | 100 to 1000 | 10 to 100 | 100 to 1000 | 100 to 1000 | 100 to 1000 | 100 to 1000 | 100 to 1000 | 100 to 1000 | < 5000 |  |  |  |  | CCn1c(-c2cccnc2[C@H](C)OC)c2c3cc(ccc31)-c1csc(n1)C[C@H](NC(=O)[C@H](C(C)C)N(C)C(=O)N1CC3(CN(C)C3)C1)C(=O)N1CCC[C@H](N1)C(=O)OCC(C)(C)C2 [Compound A268] | 100 to 1000 | 
100 to 1000 | 100 to 1000 | 100 to 1000 | 100 to 1000 | 10 to 100 | 100 to 1000 | 10 to 100 | 100 to 1000 | 100 to 1000 | 100 to 1000 |  |  | 10 to 100 |  |  |  | CCn1c(-c2cccnc2[C@H](C)OC)c2c3cc(ccc31)-c1csc(n1)C[C@H](NC(=O)[C@H](C(C)C)N(C)C(=O)N1CC(C(C)(C)O)C1)C(=O)N1CCC[C@H](N1)C(=O)OCC(C)(C)C2 [Compound A289] | 10 to 100 | 
10 to 100 |  | 100 to 1000 | 100 to 1000 | 10 to 100 | 100 to 1000 | 10 to 100 | 100 to 1000 | 100 to 1000 | 100 to 1000 |  |  | 10 to 100 |  |  |  | CCn1c(-c2cccnc2[C@H](C)OC)c2c3cc(ccc31)-c1csc(n1)C[C@H](NC(=O)[C@H](C(C)C)N(C)C(=O)N1CC[C@@H]1C)C(=O)N1CCC[C@H](N1)C(=O)OCC(C)(C)C2 [Compound A304] | 10 to 100 | 
10 to 100 |  | 100 to 1000 | 10 to 100 | 10 to 100 | 100 to 1000 | 10 to 100 | 100 to 1000 | 100 to 1000 | 10 to 100 | 10 to 100 |  | 10 to 100 | > 10000 | > 10000 |  | CCn1c(-c2cccnc2[C@H](C)OC)c2c3cc(ccc31)-c1csc(n1)C[C@H](NC(=O)[C@H](C(C)C)N(C)C(=O)N1C[C@H]3COC[C@H]3C1)C(=O)N1CCC[C@H](N1)C(=O)OCC(C)(C)C2 [Compound A312] | 10 to 100 | 
 | 100 to 1000 | 100 to 1000 |  |  | 1000 to 10000 | 100 to 1000 | 100 to 1000 | 100 to 1000 | 100 to 1000 |  |  | 100 to 1000 |  |  | 100 to 1000 | CCn1c(-c2cccnc2[C@H](C)OC)c2c3cc(ccc31)-c1csc(n1)C[C@H](NC(=O)N1CCC1)C(=O)N1CCC[C@H](N1)C(=O)OCC(C)(C)C2 [Compound A369] |  | 100 to 1000
10 to 100 |  | 100 to 1000 | 100 to 1000 | 10 to 100 | 100 to 1000 | 10 to 100 | 10 to 100 | 100 to 1000 | 100 to 1000 |  |  | 10 to 100 |  |  |  | CCn1c(-c2cccnc2[C@H](C)OC)c2c3cc(ccc31)-c1csc(n1)C[C@H](NC(=O)[C@H](C(C)C)N(C)C(=O)N1CCC1)C(=O)N1CCC[C@H](N1)C(=O)OCC(C)(C)C2 [Compound A399] | 10 to 100 | 
100 to 1000 | 100 to 1000 |  |  |  |  |  |  |  |  |  | < 5000 | 100 to 1000 |  |  |  | CCn1c(-c2cccnc2[C@H](C)OC)c2c3cc(ccc31)-c1csc(n1)C[C@H](NC(=O)[C@H](C(C)C)N(C)C(=O)N1CC(C#N)(N(C)C)C1)C(=O)N1CCC[C@H](N1)C(=O)OCC(C)(C)C2 [Compound A452] |  | 
10 to 100 |  | 100 to 1000 | 10 to 100 | 10 to 100 | 100 to 1000 | 10 to 100 | 10 to 100 | 100 to 1000 | 100 to 1000 | 10 to 100 | < 5000 | 10 to 100 |  |  |  | CCn1c(-c2cccnc2[C@H](C)OC)c2c3cc(ccc31)-c1csc(n1)C[C@H](NC(=O)[C@H](C(C)C)N(C)C(=O)N(C)N(C)C)C(=O)N1CCC[C@H](N1)C(=O)OCC(C)(C)C2 [Compound A454] | 10 to 100 | 
10 to 100 |  | 100 to 1000 | 10 to 100 | 10 to 100 | 100 to 1000 | 10 to 100 | 10 to 100 | 10 to 100 | 10 to 100 |  |  | 10 to 100 |  |  |  | CCn1c(-c2cc(N3CCN(C)CC3)cnc2[C@H](C)OC)c2c3cc(ccc31)-c1csc(n1)C[C@H](NC(=O)[C@H](C(C)C)N(C)C(=O)N1CC(C3COC3)C1)C(=O)N1CCC[C@H](N1)C(=O)OCC(C)(C)C2 [Compound A465] |  | 
10 to 100 |  | 100 to 1000 | 10 to 100 | 10 to 100 | 100 to 1000 | 10 to 100 | 100 to 1000 | 100 to 1000 | 100 to 1000 |  | < 5000 | 10 to 100 |  |  |  | CCn1c(-c2cccnc2[C@H](C)OC)c2c3cc(ccc31)-c1csc(n1)C[C@H](NC(=O)[C@H](C(C)C)N(C)C(=O)N1CCOC3(COC3)C1)C(=O)N1CCC[C@H](N1)C(=O)OCC(C)(C)C2 [Compound A475] | 10 to 100 | 
10 to 100 |  | 100 to 1000 | 10 to 100 | 10 to 100 | 100 to 1000 | 10 to 100 | 10 to 100 | 10 to 100 | 10 to 100 |  |  | 10 to 100 |  |  |  | CCn1c(-c2cccnc2[C@H](C)OC)c2c3cc(ccc31)-c1csc(n1)C[C@H](NC(=O)[C@H](C(C)C)N(C)C(=O)N1CC(Cc3cnn(C)c3)C1)C(=O)N1CCC[C@H](N1)C(=O)OCC(C)(C)C2 [Compound A500] |  | 
10 to 100 |  | 100 to 1000 | 10 to 100 | 10 to 100 | 100 to 1000 | 10 to 100 | 100 to 1000 | 100 to 1000 | 100 to 1000 | < 10 | < 5000 | 10 to 100 |  |  |  | CCn1c(-c2cccnc2[C@H](C)OC)c2c3cc(ccc31)-c1csc(n1)C[C@H](NC(=O)[C@H](C(C)C)N(C)C(=O)N1CCN3C(=O)CN(C)C[C@@H]3C1)C(=O)N1CCC[C@H](N1)C(=O)OCC(C)(C)C2 [Compound A536] | 10 to 100 | 
10 to 100 |  | 100 to 1000 | 10 to 100 | 10 to 100 | 100 to 1000 | 10 to 100 | 100 to 1000 | 100 to 1000 | 100 to 1000 | 10 to 100 | < 5000 | 10 to 100 |  |  |  | CCn1c(-c2cccnc2[C@H](C)OC)c2c3cc(ccc31)-c1csc(n1)C[C@H](NC(=O)[C@H](C(C)C)N(C)C(=O)N1CCC13COC3)C(=O)N1CCC[C@H](N1)C(=O)OCC(C)(C)C2 [Compound A560] | 100 to 1000 | 
